From ChEMBL document CHEMBL1201862, “PubChem BioAssay data set” (2004)
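How tested: cells in 96-well plates exposed to compound for 48 hours at five concentrations. Abbreviation: GI50, concentration required for 50% inhibition of growth.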 Activity calls are given as the source filed them. No stated cut-off is given here; in the data, active = GI50 up to about 1.1 µM and inactive = higher.

Experiments:
Experiment in all cases: growth of human tumour cells (NCI), 48 h
786-0 = tested on: 786-0
A498 = tested on: A498
A549 = tested on: A549
ACHN = tested on: ACHN
CAKI-1 = tested on: CAKI-1
COLO 205 = tested on: COLO 205
HCT-116 = tested on: HCT-116
HOP-62 = tested on: HOP-62
K562 = tested on: K562
M14 = tested on: M14
OVCAR-4 = tested on: OVCAR-4
OVCAR-5 = tested on: OVCAR-5
SF-268 = tested on: SF-268
SK-MEL-2 = tested on: SK-MEL-2
SNB-75 = tested on: SNB-75
SW-620 = tested on: SW-620
DU-145 = tested on: DU-145
MCF7 = tested on: MCF7
NCI/ADR-RES = tested on: NCI/ADR-RES

Measured: GI50

COc1c(Sc2ccccc2)cc(Sc2ccccc2)c2cccnc12
inactive: 786-0 20.2 µM | A498 29.1 µM | A549 24 µM | ACHN 26.8 µM | CAKI-1 12.9 µM | COLO 205 19.6 µM | HCT-116 28.9 µM | HOP-62 34.9 µM | K562 23.7 µM | M14 27 µM | OVCAR-4 16.2 µM | OVCAR-5 40.2 µM | SF-268 37.3 µM | SK-MEL-2 17.6 µM | SNB-75 19.5 µM | SW-620 39.2 µM

O=C1C2Nc3ccccc3SC2C(=O)N1c1cccc([N+](=O)[O-])c1 (configuration not stated)
inactive: 786-0 > 100 µM | A498 > 100 µM | A549 98.9 µM | ACHN > 84.1 µM | CAKI-1 > 100 µM | COLO 205 > 100 µM | HCT-116 > 100 µM | HOP-62 > 54.8 µM | K562 > 100 µM | M14 > 100 µM | OVCAR-4 > 100 µM | OVCAR-5 13.4 µM | SF-268 > 100 µM | SK-MEL-2 > 75.7 µM | SNB-75 > 100 µM | SW-620 > 100 µM

O=C1CCCC/C1=C1\C(=O)Nc2cc(F)ccc21
inactive: 786-0 > 100 µM | A498 > 100 µM | A549 > 100 µM | ACHN > 100 µM | CAKI-1 > 100 µM | COLO 205 > 100 µM | HCT-116 > 100 µM | HOP-62 > 100 µM | K562 > 100 µM | M14 > 100 µM | OVCAR-4 > 100 µM | OVCAR-5 > 100 µM | SF-268 > 100 µM | SK-MEL-2 > 100 µM | SNB-75 > 100 µM | SW-620 35.3 µM

Nc1ccc(C(=O)/C=C/c2ccccc2O)cc1
inactive: 786-0 > 100 µM | A498 > 100 µM | A549 > 100 µM | ACHN > 100 µM | CAKI-1 > 100 µM | COLO 205 > 100 µM | HCT-116 > 100 µM | HOP-62 > 100 µM | K562 > 100 µM | M14 > 100 µM | OVCAR-4 > 100 µM | OVCAR-5 > 100 µM | SF-268 > 100 µM | SK-MEL-2 > 100 µM | SNB-75 > 100 µM | SW-620 > 100 µM

[O-][n+]1c(-c2ccccc2)c2nc3ccccc3nc2c2ccccc21
inactive: 786-0 > 100 µM | A498 > 100 µM | A549 > 100 µM | ACHN > 100 µM | CAKI-1 > 100 µM | COLO 205 > 100 µM | HCT-116 > 100 µM | HOP-62 > 100 µM | K562 > 100 µM | M14 > 100 µM | OVCAR-4 5 µM | OVCAR-5 > 100 µM | SF-268 > 100 µM | SK-MEL-2 > 100 µM | SNB-75 31.1 µM | SW-620 > 100 µM

O=C1c2cccc(O)c2C(=O)c2c(O)cccc21 [DANTHRON]
inactive: 786-0 > 100 µM | A498 17.9 µM | A549 56.1 µM | ACHN > 100 µM | CAKI-1 33.7 µM | COLO 205 22 µM | HCT-116 49 µM | HOP-62 > 100 µM | K562 92.9 µM | M14 97.7 µM | OVCAR-4 26.3 µM | OVCAR-5 > 100 µM | SF-268 > 100 µM | SK-MEL-2 > 100 µM | SNB-75 > 100 µM | SW-620 64.1 µM

CC(CC(=O)Nc1ccc(NC(=O)CC(C)/N=N\C(N)=O)cc1)/N=N\C(N)=O (configuration not stated)
inactive: 786-0 > 100 µM | A498 > 100 µM | A549 > 100 µM | ACHN > 100 µM | CAKI-1 > 100 µM | COLO 205 34.8 µM | HCT-116 > 100 µM | HOP-62 > 100 µM | K562 > 100 µM | M14 > 100 µM | OVCAR-4 > 100 µM | OVCAR-5 > 100 µM | SF-268 > 100 µM | SK-MEL-2 > 100 µM | SNB-75 > 100 µM

O=C1OC(O)C(Oc2ccc(Cl)cc2)=C1Cl (configuration not stated)
inactive: 786-0 > 100 µM | A498 > 100 µM | A549 > 100 µM | ACHN > 100 µM | CAKI-1 > 100 µM | COLO 205 > 100 µM | HCT-116 > 100 µM | HOP-62 > 100 µM | K562 > 100 µM | M14 > 100 µM | OVCAR-4 > 100 µM | OVCAR-5 > 100 µM | SF-268 > 100 µM | SK-MEL-2 > 100 µM | SNB-75 > 100 µM | SW-620 > 100 µM

CCOC(=O)c1cn2c([nH]c3ccccc32)c(C#N)c1=O
inactive: 786-0 > 100 µM | A498 > 100 µM | A549 > 100 µM | ACHN > 100 µM | CAKI-1 > 100 µM | COLO 205 41.6 µM | HCT-116 80.4 µM | HOP-62 > 100 µM | K562 > 100 µM | M14 > 100 µM | OVCAR-4 > 100 µM | OVCAR-5 > 100 µM | SF-268 > 100 µM | SK-MEL-2 > 100 µM | SNB-75 > 100 µM | SW-620 17.1 µM

COc1ccc2cc3nc(O)cc(O)c3cc2c1OC
inactive: 786-0 > 100 µM | A498 > 100 µM | A549 > 100 µM | ACHN > 100 µM | CAKI-1 > 100 µM | HCT-116 > 100 µM | HOP-62 > 100 µM | K562 > 100 µM | M14 > 100 µM | OVCAR-4 > 100 µM | OVCAR-5 > 100 µM | SF-268 > 100 µM | SK-MEL-2 > 100 µM | SNB-75 > 100 µM | SW-620 > 100 µM

COc1ccc(C2=NNC(=O)OC2c2ccccc2)cc1 (configuration not stated)
inactive: 786-0 > 100 µM | A498 49.4 µM | A549 51.5 µM | ACHN > 100 µM | CAKI-1 92.3 µM | COLO 205 78.2 µM | HCT-116 > 100 µM | HOP-62 > 100 µM | K562 26.7 µM | M14 50.7 µM | OVCAR-4 > 100 µM | OVCAR-5 > 100 µM | SF-268 72.6 µM | SK-MEL-2 36.1 µM | SNB-75 28.1 µM | SW-620 38.9 µM

CC1CCC(C(C)C)C(OC(=O)NCn2cc(-c3ccccc3)nn2)C1 (configuration not stated)
inactive: 786-0 41.2 µM | A549 > 100 µM | ACHN > 100 µM | CAKI-1 > 100 µM | COLO 205 > 100 µM | DU-145 > 100 µM | HCT-116 > 100 µM | HOP-62 25.6 µM | K562 > 100 µM | M14 > 100 µM | MCF7 > 100 µM | NCI/ADR-RES > 100 µM | OVCAR-4 57.8 µM | OVCAR-5 > 100 µM | SF-268 58.7 µM | SK-MEL-2 > 100 µM | SNB-75 25.6 µM | SW-620 > 100 µM
